Source: patent US6596885B2, “19-Nor steroids having a thiocarbonated chain in position 11beta, their preparation process and the intermediates of this process, their use as medicaments and compositions” (Aventis Pharma S.A., priority 1991, dated 2003)
Like-named read-outs stand apart in the source and are kept apart here.

Experiments:
[1] = system: MCF-7 mammary tumour cells; test: Anti-proliferative activity on the growth of MCF-7 mammary tumour cells (DNA dosage); assay type: cell-based; settings: MCF-7 cells in DSE medium with 10^-10 M estradiol, D7 to D9, DNA by DABA fluorimetry, read-out: IC 50: concentration which inhibits the growth of MCF7 cells by 50%
Procedure: 2—Anti-proliferative Activity of the Products of the Invention on the Growth of MCF-7 Mammary Tumour Cells
MCF-7 lines are kept in culture in FCS medium (according to 1) at 37° C. in a humid atmosphere containing 5% CO2. Subconfluent cells are collected by trypsination (0.05% trypsin, 0.02% EDTA) then rinsed by gentle centrifugation. A sample of cells in suspension is counted with a Malassez cell.
The cells, resuspended in DSE medium (according to 1), are seeded at the rate of 50,000 cells per well in multiwell plates (24 wells of 2.5 cm^2). Twenty-four hours after seeding (D0), the product to be tested is added to the medium in ethanolic solution (final concentration of ethanol: 0.1%), at a concentration of 10^−11 to 10^−6M, the control wells receiving the same ethanol concentration. The media are renewed every 48 hours. At the end of the experiment (D7 to D9), the medium is extracted and the cells are immediately fixed with 150 microlitres of methanol in order to dose the DNA.
The anti-proliferative activity of the products is evaluated by their capacity to inhibit the increase of DNA
The DNA is dosed by a fluorimetric method using DABA (3,5 diaminobenzoic acid) (according to 2): 150 microlitres of DABA are added to each well; the plates are then incubated for 45 mn at 56° C., then 2 ml of 1N HCl is added. The fluorescence is measured using a fluorimeter (excitation wavelength: 408 nm, emission wavelength: 510 nm).
The quantity of DNA per well is evaluated relative to a reference scale obtained by treating a calf thymus DNA standard under the same conditions.
The concentration in nM which inhibits the growth of MCF7 cells by 50% (IC50) was determined in the manner indicated above:
(1) A Base Medium is Prepared as Follows
The FCS medium is composed of 95% of base medium and 5% of foetal calf serum.
The DSE medium is composed of 95% of base medium, 5% of steroid-free foetal calf serum on carbon-dextran and 10^−10 M of estradiol.
(2) Puzas and Goodman, Analytical Biochemistry, Vol 86, p. 50, 1978

[2] = biological target: T1, Estrogen receptor of a mouse uterus (Mus musculus, UniProt P19785); test: Activity on the estrogen receptor of a mouse uterus (relative bond affinity, displacement of tritiated estradiol); assay type: binding; settings: mouse uterus cytosol, RBA = 100 (CH)/(CX) relative to unlabelled estradiol
T1 construct: The homogenate is then ultracentrifuged (209,000 g×30 mn.) at 0° C; from tissue; host or cells: uterus of 18 to 21-day old immature female mice, cytosol (ultracentrifugation supernatant of the homogenate)
T1 sequence (P19785 1-599): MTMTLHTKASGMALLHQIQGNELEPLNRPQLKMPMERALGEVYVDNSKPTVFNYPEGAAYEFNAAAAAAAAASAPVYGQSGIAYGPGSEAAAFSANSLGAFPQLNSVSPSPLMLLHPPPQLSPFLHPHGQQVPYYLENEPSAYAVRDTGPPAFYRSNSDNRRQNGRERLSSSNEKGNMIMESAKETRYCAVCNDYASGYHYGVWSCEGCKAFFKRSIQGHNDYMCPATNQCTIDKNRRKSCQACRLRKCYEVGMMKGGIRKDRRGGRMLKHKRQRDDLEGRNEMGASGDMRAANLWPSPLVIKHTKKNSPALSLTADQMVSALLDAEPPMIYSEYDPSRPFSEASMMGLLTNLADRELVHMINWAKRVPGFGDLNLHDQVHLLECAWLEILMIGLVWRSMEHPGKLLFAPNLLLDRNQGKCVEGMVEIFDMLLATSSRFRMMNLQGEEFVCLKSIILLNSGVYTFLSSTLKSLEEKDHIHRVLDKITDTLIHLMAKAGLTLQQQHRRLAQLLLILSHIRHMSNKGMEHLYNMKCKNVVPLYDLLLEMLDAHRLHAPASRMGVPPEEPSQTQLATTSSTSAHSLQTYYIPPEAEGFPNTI
Procedure: 1—Study of the Activity of the Products of the Invention on the Estrogen Receptor of a Mouse Uterus
18 to 21-day old impuberal female mice are sacrificed, the uteri are removed, then homogenized at 0° C., using a Potter teflon-glass in a TS buffered solution (10 mM Tris, 0.25 M saccharose, HCl pH 7.4) (1 g of tissue per 25 ml of TS). The homogenate is then ultracentrifuged (209,000 g×30 mn.) at 0° C. The supernatant aliquots thus obtained are incubated at 25° C. for 5 hours, with a constant concentration (T) of tritiated estradiol in the presence of increasing concentrations either of unlabelled estradiol (0-1000×10^−9M), or of unlabelled product to be tested (1 to 25000×10^−9M). The concentration of bound tritiated estradiol (B) is then measured in each incubate by the carbon-dextran adsorption technique.
Calculation of the Relative Bond Affinity (RBA)
The following two curves are drawn: the percentage of bound tritiated hormone B/BO as a function of the logarithm of the concentration of unlabelled reference hormone or as a function of the logarothm of the concentration of unlabelled test product.
The straight line of the following equation:
BO=% of binding of the bound tritiated hormone in the absence of any unlabelled product.
B=% of the bound tritiated hormone in the presence of a concentration X of unlabelled product.
B min=% of bound tritiated hormone in the presence of a large excess of unlabelled reference hormone (500 nM).
The intersections of the straight line I50 and the curves allow the evaluation of the concentrations of unlabelled reference hormone (CH) and of the unlabelled test product (CX) which inhibit by 50% the specific binding of the tritiated hormone on the receptor.
The relative bond affinity (RBA) of the test product is calculated by the equation: […]

Row | SMILES | IC50 ([1]; Homo sapiens, MCF7) [nM] | Relative bond affinity (RBA), Estrogen receptor incubation 5H at 25° C. [2] | IC50 [1] [nM]
1 | C[C@]12C[C@H](CCCCCCCCSCc3ccccn3)[C@@H]3c4ccc(O)cc4CC[C@H]3[C@@H]1CC[C@@H]2O [Example 1, 11beta-[8-[(2-pyridinylmethyl)thio]octyl]estra-1,3,5(10)-triene-3,17beta-diol] | 0.024 | – | –
2 | C[C@]12C[C@H](c3ccc(OCCCCC[S+]([O-])Cc4ccccn4)cc3)[C@@H]3c4ccc(O)cc4CC[C@H]3[C@@H]1CC[C@@H]2O (stereo partly drawn) [Example 5, 11beta-[4-[5-[(2-pyridinylmethyl)sulphinyl]-pentyloxy]phenyl]estra-1,3,5(10)-triene-3,17beta-diol] | 0.012 | 21.2 | –
3 | C[C@]12C[C@H](c3ccc(OCCCCC[S+]([O-])Cc4cccnc4)cc3)[C@@H]3c4ccc(O)cc4CC[C@H]3[C@@H]1CC[C@@H]2O (stereo partly drawn) [Example 7, 11beta-[4-[5-[(3-pyridinylmethyl)sulphinyl]pentyloxy]phenyl]estra-1,3,5(10)-triene-3,17beta-diol] | 0.026 | 26.3 | –
4 | C[C@]12C[C@H](c3ccc(OCCCCCS(=O)(=O)CCCC(F)(F)C(F)(F)F)cc3)[C@@H]3c4ccc(O)cc4CC[C@H]3[C@@H]1CC[C@@H]2O [Example 32, 11beta-[4-[5-[(4,4,5,5,5-pentafluoropentyl)sulphonyl]pentyloxy]phenyl]estra-1,3,5(10)-triene-3,17beta-diol] | 0.1 | 56 | –
5 | CCCCCS(=O)(=O)C(C)CCCOc1ccc([C@H]2C[C@]3(C)[C@@H](O)CC[C@H]3[C@@H]3CCc4cc(O)ccc4[C@H]32)cc1 (stereo partly drawn) [Example 60, 11beta-[4-[4-(pentylsulphonyl)pentyloxy]phenyl]estra-1,3,5(10)-triene-3,17beta-diol] | 0.25 | 18.2 | –
6 | C[C@]1(O)CC[C@H]2[C@@H]3CCc4cc(O)ccc4[C@H]3[C@@H](c3ccc(OCCCCCS(=O)(=O)CCCC(F)(F)C(F)(F)F)cc3)C[C@@]21C [Example 78, 11beta-[4-[5-[(4,4,5,5,5-pentafluoropentyl)sulphonyl]pentyloxy]phenyl]17alpha-methyl estra-1,3,5(10)-triene-3,17beta-diol] | – | 21.8 | 0.03
